Values of other authors as cited in patent publication US20070031367A1, “Composition and method for neck skin firming” (priority 2004, published 2007).

Question: With `COc1cc(CNC(=O)CCCC/C=C/C(C)C)ccc1O` [Capsaicin, N-canillyl-8-methyl-6-(E)-noneamide] as the compound, how does the “Solubility in fats, oils and alcohol” value (fats, oils and alcohol) read?
Answer: very soluble

Question: What about the Solubility in water (water) of the same compound?
Answer: sparingly soluble
